According to patent US12276657B2, “Detection of PAR in the CSF of patients with Parkinson's disease” (The Johns Hopkins University, priority 2017, dated 2025):
Residues, ends and D or L forms follow the SMILES beside them. *: point of attachment. Cbz = O=C(OCc1ccccc1)*; CH2F = FC*

What was measured:
primary cortical neurons = assay: Cell death of primary cortical neurons, Hoechst and propidium iodide staining; assay type: cell-based, mouse; settings: for α-syn PFF toxicity (cell death, FIGS. 47 and 48): pre-treated 1 h: ABT-888 10 μM, Z-VAD 20 μM, Nec-1 20 μM, 3-MA 500 μM, α-syn PFF 14 days; for α-syn PFF-mediated cell death (PI staining): inhibitor pre-incubated 1 h (ABT-888 10 μM, AG-014699 1 μM, BMN 673 10 μM), α-syn PFF 5 μg/ml 14 days
Description: SH-SYSY cells (ATCC) were cultured in DMEM containing 10% fetal bovine serum and penicillin/streptomycin at 37° C. under 5% CO2. The cells were transfected using PolyFect reagent (Qiagen) according to the manufacturer's instructions. Primary cortical neurons from WT or PARP1 KO embryos were prepared. Briefly, the primary cortical neurons were cultured at embryonic day 16 in neurobasal media supplemented with B-27, 0.5 mM L-glutamine, penicillin and streptomycin (Invitrogen, Grand Island, NY). The neurons were replaced to fresh medium every 3-4 days. ABT-888 (10 μM), AG-014699 (1 μM), BMN 673 (10 μM), Z-VAD (20 μM), Nec-1 (20 μM) or 3-MA (500 μM) was pretreated to neurons 1 h before α-syn PFF treatment. α-syn PFF were added at 7 days in vitro (DIV) and further incubated for indicated times followed by cell death assay or biochemical experiments. Primary neurons were infected with AAV2-control sgRNA or AAV2-PARP1 sgRNA (ViGene Bioscineces, Rockville, MD, USA), and AAV-α-syn WT or AAV-α-syn A53T at DIV 4-5.
Percent of cell death was determined by staining with 7 μM Hoechst 33342 and 2 μM propidium iodide (PI) (Invitrogen, Carlsbas, CA). Images were taken and counted by Zeiss microscope equipped with automated computer assisted software (Axiovision 4.6, Carl Zeiss, Dublin, CA, USA).

PARP = biological target: T1, PARP (Mus musculus, UniProt P11103); assay: α-syn PFF-induced PARP activation (PAR accumulation) in primary cortical neurons, western blot; assay type: cell-based; settings: inhibitor pre-incubated 1 h (ABT-888 10 μM, AG-014699 1 μM, BMN 673 10 μM), then α-syn PFF
T1 construct: Primary cortical neurons from WT or PARP1 KO embryos were prepared; endogenous in cells; host or cells: primary mouse cortical neurons (embryonic day 16)
Description: After homogenization, samples were rotated at 4° C. for 30 min for complete lysis, the homogenate was centrifuged at 15,000 g for 20 min and the supernatants were used for further analysis. Protein levels were quantified using the BCA assay (Pierce, Rockford, Ill., USA), samples were separated using SDS-polyacrylamide gels and transferred onto nitrocellulose membranes. The membranes were blocked with 5% non-fat milk in TBS-T (Tris-buffered saline with 0.1% TWEEN-20® (Polysorbate 20)) for 1 h, probed using primary antibodies (Table 3) and incubated with appropriate HRP-conjugated secondary antibodies. The bands were visualized by ECL substrate.
Primary cortical neurons from WT or PARP1 KO embryos were prepared. Briefly, the primary cortical neurons were cultured at embryonic day 16 in neurobasal media supplemented with B-27, 0.5 mM L-glutamine, penicillin and streptomycin (Invitrogen, Grand Island, NY). The neurons were replaced to fresh medium every 3-4 days. […] Primary neurons were infected with AAV2-control sgRNA or AAV2-PARP1 sgRNA (ViGene Bioscineces, Rockville, MD, USA), and AAV-α-syn WT or AAV-α-syn A53T at DIV 4-5.

α-syn [1] = assay: α-syn aggregation and PARP activation in primary cortical neurons transduced with AAV-α-syn (NMDA or PAR delivery); assay type: cell-based, mouse; settings: for NMDA-induced PARP activation / NMDA-induced α-syn aggregation: 10 μM ABT-888 or 1 μM AG-014699 1 h, then 500 μM NMDA 5 min
SH-SYSY cells = assay: α-syn aggregation and PARP activation in SH-SYSY cells transfected with α-syn (MNNG or PAR delivery); assay type: cell-based; settings: for MNNG-induced PARP activation / MNNG-induced α-syn aggregation: 10 μM ABT-888 or 1 μM AG-014699 1 h, then 50 μM MNNG 15 min
α-syn [2] = assay: In vitro fibrillization of recombinant α-syn (immunoblot, thioflavin T, TEM); assay type: biochemical, mouse; settings: for α-syn fibrillization with other polymer or monomer: 5 nM, 36 h
WT mice = assay: Intrastriatal injection of PAR-α-syn PFF, α-syn PFF or PAR in WT mice; assay type: in vivo, mouse
Source text: There is no significant loss of DA neuron contralateral to the injection side at any time point (FIGS. 81 and 82).

[3] = WT cultures, 500 μM NMDA 5 min, 6 h after

T1 sequence (P11103 whole entry): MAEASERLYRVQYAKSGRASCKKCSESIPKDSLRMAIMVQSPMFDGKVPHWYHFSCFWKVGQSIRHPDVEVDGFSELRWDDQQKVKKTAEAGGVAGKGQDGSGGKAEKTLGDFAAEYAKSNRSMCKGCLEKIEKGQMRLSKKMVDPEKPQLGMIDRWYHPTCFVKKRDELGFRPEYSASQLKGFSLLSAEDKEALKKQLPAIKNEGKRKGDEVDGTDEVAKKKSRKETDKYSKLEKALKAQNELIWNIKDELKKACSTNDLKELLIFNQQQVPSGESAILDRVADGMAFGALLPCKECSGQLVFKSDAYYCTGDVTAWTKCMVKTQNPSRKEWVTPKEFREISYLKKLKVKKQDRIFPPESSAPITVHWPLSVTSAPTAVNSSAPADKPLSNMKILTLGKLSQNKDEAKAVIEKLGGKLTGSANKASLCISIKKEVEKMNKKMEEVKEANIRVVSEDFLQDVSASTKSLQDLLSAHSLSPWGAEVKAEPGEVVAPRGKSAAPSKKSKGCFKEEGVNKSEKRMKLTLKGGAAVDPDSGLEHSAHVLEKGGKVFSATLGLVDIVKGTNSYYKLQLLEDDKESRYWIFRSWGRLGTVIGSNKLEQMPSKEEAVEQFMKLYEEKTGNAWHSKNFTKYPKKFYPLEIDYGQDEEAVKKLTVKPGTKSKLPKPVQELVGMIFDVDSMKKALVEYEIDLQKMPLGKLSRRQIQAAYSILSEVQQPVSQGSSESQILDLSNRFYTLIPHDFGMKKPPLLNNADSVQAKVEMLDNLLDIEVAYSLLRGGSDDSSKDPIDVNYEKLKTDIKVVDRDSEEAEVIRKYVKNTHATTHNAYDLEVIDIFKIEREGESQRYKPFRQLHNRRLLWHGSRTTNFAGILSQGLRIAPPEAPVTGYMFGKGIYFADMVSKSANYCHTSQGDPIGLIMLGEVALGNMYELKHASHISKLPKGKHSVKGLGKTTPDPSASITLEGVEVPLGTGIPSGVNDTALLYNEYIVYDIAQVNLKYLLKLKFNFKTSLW

Cn1cnc(N)c2ncnc1-2 [3-Methyladenine]
α-syn PFF toxicity (cell death, FIGS. 47 and 48) (primary cortical neurons): had no effect

C[C@]1(c2nc3c(C(N)=O)cccc3[nH]2)CCCN1 [ABT-888, veliparib]
α-syn PFF-mediated PARP activation (PARP): prevents
α-syn PFF-mediated cell death (PI staining) (primary cortical neurons): prevents
α-syn PFF toxicity (cell death, FIGS. 47 and 48) (primary cortical neurons): prevents α-syn PFF toxicity
NMDA-induced PARP activation (α-syn [1]): prevent
NMDA-induced α-syn aggregation (α-syn [1]): prevent
MNNG-induced PARP activation (SH-SYSY cells): prevent
MNNG-induced α-syn aggregation (SH-SYSY cells): prevent

Nc1ncnc2c1ncn2[C@@H]1O[C@H](COP(=O)(O)OP(=O)(O)OC[C@H]2OC(O)[C@H](O)[C@@H]2O)[C@@H](O)[C@H]1O (some centres unmarked) [ADP ribose monomer, ADP ribose]
α-syn fibrillization with other polymer or monomer (α-syn [2]; 37° C.): had no effect on α-syn fibrillization

CNCc1ccc(-c2[nH]c3cc(F)cc4c3c2CCNC4=O)cc1 [AG-014699, Rucaparib]
α-syn PFF-mediated PARP activation (PARP): prevents
α-syn PFF-mediated cell death (PI staining) (primary cortical neurons): prevents
NMDA-induced PARP activation (α-syn [1]): prevent
NMDA-induced α-syn aggregation (α-syn [1]): prevent
MNNG-induced PARP activation (SH-SYSY cells): prevent
MNNG-induced α-syn aggregation (SH-SYSY cells): prevent

Cn1ncnc1[C@H]1c2n[nH]c(=O)c3cc(F)cc(c23)N[C@@H]1c1ccc(F)cc1 [BMN 673, Talazoparib]
α-syn PFF-mediated PARP activation (PARP): prevents
α-syn PFF-mediated cell death (PI staining) (primary cortical neurons): prevents

CN[C@H](CC(=O)O)C(=O)O [NMDA, N-methyl-D-aspartate]
activation of PARP, PAR immunoblot (α-syn [1]; [3]): leads to activation of PARP
aggregation of α-syn after NMDA (α-syn [1]; [3]): concomitant aggregation of α-syn

CN1C(=O)C(Cc2c[nH]c3ccccc23)NC1=S (centres unmarked) [Necrostatin-1]
α-syn PFF toxicity (cell death, FIGS. 47 and 48) (primary cortical neurons): had no effect

COC(=O)C[C@H](NC(=O)[C@H](C)NC(=O)[C@@H](NC(=O)OCc1ccccc1)C(C)C)C(=O)CF [Z-VAD-FMK] (Cbz-Val-Ala-Asp(OMe)-CH2F)
α-syn PFF toxicity (cell death, FIGS. 47 and 48) (primary cortical neurons): partially reduces α-syn PFF toxicity
α-syn PFF toxicity (cell death, FIGS. 47 and 48) (primary cortical neurons; listed as ZVAD): modest neuroprotection

Poly(ADP-ribose) [PAR]
neuronal cell death by PAR itself (primary cortical neurons; 20 nM, 14 days): does not cause significant cell death
earliest time different molecular weight forms of α-syn observed (α-syn [2]; 5 nM PAR, 37° C.): 24 h
fibrillization of α-syn, immunoblot (α-syn [2]; 5 nM PAR, 37° C., agitated): markedly accelerated
effect of temperature on α-syn fibrillization (α-syn [2]; 5 nM PAR, indicated temperatures, 72 h): causes the fibrillization of α-syn at temperatures that are not permissive for α-syn fibrillization in the absence of PAR
PAR concentration of peak α-syn aggregation (α-syn [2]; 36 hours): 5 nM
α-syn fibrillization at 1 nM PAR (α-syn [2]; 36 hours): capable of enhancing α-syn fibrillization
α-syn fibrillization at 20 nM PAR (α-syn [2]; 36 hours): does not appreciably increase α-syn fibrillization
α-syn fibrils, TEM (α-syn [2]; in the presence of PAR, 37° C.): extensively fibrillated at 12 hours
thioflavin T fluorescence, PAR alone (α-syn [2]; without α-syn): has no effect on thioflavin T fluorescence
fibrillization of α-syn, thioflavin T fluorescence (α-syn [2]; α-syn with PAR): accelerates the fibrillization of α-syn
aggregation of α-syn after exogenous PAR via Bioporter (α-syn [1]; WT and PARP-1 KO cultures transduced with AAV-α-syn): increases the aggregation of α-syn
aggregation of α-syn after exogenous PAR (SH-SYSY cells; SH-SYSY WT and SH-SYSY PARP-1 KO cultures): increased the aggregation of α-syn
DA concentration in the contralateral striatum, HPLC (WT mice; 1, 3 and 6 months): no significant difference of DA concentration
DA neuron number after PAR injection by itself (WT mice; 1, 3 and 6 months): has no effect on DA neuron number
pole test (WT mice; 3 months): no significant deficits

PolyA
α-syn fibrillization with other polymer or monomer (α-syn [2]; 37° C.): had no effects on α-syn fibrillization
